Data published in patent US20170015654A1, “PYRIDAZINE COMPOUND” (TAKEDA PHARMACEUTICAL COMPANY LIMITED, priority 2014, published 2017).

Columns and labels:
[1] = target: T1, human SCD1 (Homo sapiens, UniProt O00767); assay: Measurement of human SCD1 binding activity (inhibition of binding of radiolabeled compound Z); details: 1 μM compound; human SCD1-expressing membrane fraction; compound Z radioligand; read-out: Rate of inhibition of SCD1 binding (%) at compound concentration of 1 μM
T1 construct: made in house; host or cells: High Five insect cells (baculovirus, pFastBac1/hSCD1); membrane fraction
T1 sequence (O00767 1-359): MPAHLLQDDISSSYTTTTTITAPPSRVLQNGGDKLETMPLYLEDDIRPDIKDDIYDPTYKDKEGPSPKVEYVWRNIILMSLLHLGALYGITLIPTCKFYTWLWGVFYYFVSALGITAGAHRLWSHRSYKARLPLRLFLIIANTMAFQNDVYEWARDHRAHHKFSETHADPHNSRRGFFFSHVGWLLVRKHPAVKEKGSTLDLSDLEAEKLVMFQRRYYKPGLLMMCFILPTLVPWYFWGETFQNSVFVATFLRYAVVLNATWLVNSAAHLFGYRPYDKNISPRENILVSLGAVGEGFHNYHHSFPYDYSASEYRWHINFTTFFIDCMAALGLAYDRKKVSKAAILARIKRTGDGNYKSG
Protocol: Measurement of Human SCD1 Binding Activity Using (5-(6-(1′H-spiro[1-benzofuran-3,3′-pyrrolidin]-1′-yl)pyridazin-3-yl)-1,2,4-oxadiazol-3-yl) [^3H2]methanol
The SCD1 binding activity of the compound of the present invention was measured as the activity of inhibiting the binding of (5-(6-(1′H-spiro[1-benzofuran-3,3′-pyrrolidin]-1′-yl)pyridazin-3-yl)-1,2,4-oxadiazol-3-yl)[^3H2]methanol (radiolabeled form of the compound disclosed as a SCD inhibitor in Example 157 of International Publication No. WO2008/096746; in the present specification, also referred to as compound Z) to SCD1.
Specifically, first, Human liver cDNA library (Takara Bio Inc.) was cloned as a template by PCR using KOD-Plus-(Toyobo Co., Ltd.) DNA polymerase. The primers used were 5′-[…]-3′ and 5′-[…]-3′. The amplification fragment was temporarily transferred to a pCR Blunt II-TOPO vector using Zero Blunt PCR Cloning Kit (Life Technologies, Inc.) to obtain pCR Blunt II-TOPO/hSCD1. A fragment obtained by the cleavage of this pCR Blunt II-TOPO/hSCD1 with BamHI and NotI was transferred to pFastBac1 (Life Technologies, Inc.) to construct a recombinant plasmid pFastBac1/hSCD1 for hSCD1 insect cell expression systems.
Baculovirus was prepared using the pFastBac1/hSCD1 plasmid according to the protocol of Bac-to-Bac Baculovirus Expression System (Life Technologies, Inc.).
The insect cells for use in expression were High Five cells (Life Technologies, Inc.) subcultured in a PSFM-J1 medium (Wako Pure Chemical Industries, Ltd.) containing 5% FBS, 10 U/L heparin (Sigma-Aldrich Corp.) and 50 μg/mL gentamicin.
The High Five cells were inoculated at 0.8×10^6 cells/mL and cultured until the following day. When the cell density reached 2.0×10^6 cells/mL, Ammonium Iron(III) Sulfate 12-Water (Wako Pure Chemical Industries, Ltd.) was added thereto at a final concentration of 10 μM. The cells were further infected with the baculovirus and cultured for 3 days.
After the completion of the culture, the culture solution was centrifuged (4° C., 4,000 rpm, […]) and frozen at −80° C. to obtain hSCD1-expressing insect cells. Next, the frozen hSCD1-expressing insect cells were suspended in buffer A (50 mM Tris-HCl (pH 7.5) containing 250 mM sucrose and cOmplete Protease Inhibitor Cocktail Tablets (F. Hoffmann-La Roche, Ltd.)), and the cells were disrupted (4° C., 20,000 rpm, 20 sec×2) using a POLYTORON homogenizer (Central Scientific Commerce, Inc.).
This cell lysate was centrifuged (4° C., 850×g, […]), and the supernatant was further ultracentrifuged (4° C., 186,000×g, 60 min). The supernatant was discarded, and buffer A was added to the precipitate. The resultant was suspended using POLYTRON (4° C., 10,000 rpm, 10 sec×2) and passed through a 40-μm cell strainer to prepare a human SCD1-expressing membrane fraction (hereinafter, also simply referred to as human SCD1). The protein concentration was measured using BCA Protein Assay Kit (Thermo Fisher Scientific, Inc.) with BSA used as standards.
The obtained primary dilution was diluted 250-fold by the addition of an assay buffer (10 mM Tris-HCl, pH 7.5, 100 mM KCl, 10 mM NaF, 3 mM MgCl2, 0.005% Tween 20, 1 mM GSH) to obtain a secondary dilution. The human SCD1 diluted using an assay buffer was dispensed at 100 μL/well (containing 0.2 μg of the protein) to a polypropylene 96-well plate, and then, the secondary dilution of the compound was added thereto at 50 μL/well. Further, a solution of 12 nM compound Z diluted with an assay buffer was added thereto at 50 μL/well, and the plate was left standing at room temperature for 2 hours. Then, the contents in each well were transferred to each well of UniFilter-96 GF/C PEI coated plate (PerkinElmer, Inc.) wetted with a washing buffer, followed by washing five times with a washing buffer (10 mM Tris-HCl, pH 7.5). After drying of the filter plate, Microscint-O (PerkinElmer, Inc.) was added thereto at 25 μL/well, and the obtained radioactivity was measured using TopCount (PerkinElmer, Inc.). […]

[2] = test system: human large intestine cancer cell line HCT116; assay: Antitumor effect on human large intestine cancer cell line HCT116 cancer-bearing mice; assay type: in vivo, mouse; details: 10 mg/kg, 2 doses per day, orally for 14 days; HCT116 cancer-bearing BALB/c nude mice; tumor growth vs control group
Protocol: The compound of the present invention was evaluated for its antitumor effect on human large intestine cancer cell line HCT116 cancer-bearing mice by the following method.
The human large intestine cancer cell line HCT116 (purchased from ATCC (American Type Culture Collection)) was transplanted to each 6-week-old BALB/c female nude mouse (BALB/cA Jcl nu/nu: CLEA Japan Inc.) by the subcutaneous injection of 1.0×10^6 cells. After the transplantation, successfully engrafted tumor was observed, and the tumor size was measured 10 to 14 days after the transplantation. The tumor volume was calculated according to the following expression:
Tumor volume=Major axis×Minor axis×Minor axis×(½)
Individuals in which the volume of the engrafted tumor reached approximately 150 mm^3 were selected and used in the experiment as groups each involving 5 to 8 individuals. Each test compound was suspended in a 0.5% methylcellulose solution and orally administered to each individual for 14 days using the dose and the number of doses shown in the table below. Finally, in order to measure drug effects, the tumor volume was calculated from the tumor sizes at the day before the start of the administration and at the final day of the administration, and tumor growth in the test compound administration group compared with a control administration group given only a 0.5% methylcellulose solution was calculated as T/C according to the following expression:
T/C (%)=(Tumor volume after the completion of the administration of the test compound administration group−Tumor volume at the day before the start of the administration of the test compound administration group)/(Tumor volume after the completion of the administration of the control administration group−Tumor volume at the day before the start of the administration of the control administration group)×100

inhibition at 1 µM [1]: 95%
Structure (SMILES): N#CC1(c2ccc(C(F)(F)F)cc2)CCN(c2ccc(-c3nc(CO)no3)nn2)CC1 [Example 38, 1-(6-(3-(Hydroxymethyl)-1,2,4-oxadiazol-5-yl)pyridazin-3-yl)-4-(4-(trifluoromethyl)phenyl)piperidine-4-carbonitrile]
T/C (%) [2]: 85.8%
